Source: patent US20110009446A1, “OLIGOMER-GUANIDINE CLASS CONJUGATES” (Nektar Therapeutics, priority 2008, published 2011)
Where a name gives a salt, the structure may show the parent alone.

Experiments:
[1] = target: T1, noradrenalin transporters (Rattus norvegicus, UniProt Q9WTR4); test: Radioligand binding assay ([3H]-nisoxetine competition) in rat forebrain membranes; conditions: 1.0 nM [3H]-nisoxetine, 0-4° C., 4 hours, Cheng Prusoff correction
T1 construct: membranes prepared from rat forebrain which express noradrenalin transporters; from tissue; host or cells: rat forebrain membranes
T1 sequence (Q9WTR4 1-597): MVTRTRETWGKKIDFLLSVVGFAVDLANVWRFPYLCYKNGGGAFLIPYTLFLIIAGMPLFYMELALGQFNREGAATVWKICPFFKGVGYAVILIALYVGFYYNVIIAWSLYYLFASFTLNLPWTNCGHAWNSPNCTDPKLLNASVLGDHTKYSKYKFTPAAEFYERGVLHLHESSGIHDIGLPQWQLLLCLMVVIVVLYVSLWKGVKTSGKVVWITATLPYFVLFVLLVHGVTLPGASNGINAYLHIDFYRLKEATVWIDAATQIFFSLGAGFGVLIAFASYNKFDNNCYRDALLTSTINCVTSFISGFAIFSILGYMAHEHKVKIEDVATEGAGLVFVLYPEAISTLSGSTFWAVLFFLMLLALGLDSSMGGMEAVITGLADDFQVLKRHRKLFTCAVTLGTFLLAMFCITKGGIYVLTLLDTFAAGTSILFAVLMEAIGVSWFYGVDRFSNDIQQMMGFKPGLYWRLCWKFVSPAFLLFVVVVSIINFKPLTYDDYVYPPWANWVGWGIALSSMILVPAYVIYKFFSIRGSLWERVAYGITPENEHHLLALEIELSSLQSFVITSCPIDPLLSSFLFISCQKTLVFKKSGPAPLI
Description: Competition binding experiments are conducted by incubating membranes with 1.0 nM of radioligand, [^3H]-nisoxetine, in the presence of variable concentrations (0.1 nM to 3 μM and 1 nM to 30 μM for parent and PEG conjugates, respectively) of test compounds. The reaction is carried out in 50 mM Tris-HCl (pH 7.4), containing 300 mM NaCl and 5 mM KCl at 0-4° C. for 4 hours. Following incubations, the membranes are washed, and the bound radioactivity is measured. Non-specific binding is measured in the presence of excess desipramine (1.0 μM) as the cold ligand; this value is subtracted from the total binding to yield the specific binding at each test compound concentration.
Ki is obtained using the Cheng Prusoff correction using experimental Kd values that are previously determined under these assay conditions.

[2] = tested on: visceral pain in mice (CD-1 male mice); test: Analgesic assay (acetic acid-induced writhing); type: in vivo
Description: An analgesic assay was used to determine whether a given compound can reduce and/or prevent visceral pain in mice. The assay utilized CD-1 male mice (5-8 mice per group), each mouse being approximately 0.015-0.030 kg on the study day. Mice were treated according to standard protocols. Mice were given a single “pretreatment” dose of a compound lacking covalent attachment of a water-soluble, non-peptidic oligomer, a corresponding version comprising the compound covalently attached to a water-soluble, non-peptidic oligomer, or control solution (IV, SC, IP or orally) thirty minutes prior to the administration of the acetic acid solution. The animal was given an IP injection of an irritant (acetic acid) that induces “writhing” which may include: contractions of the abdomen, twisting and turning of the trunk, arching of the back and the extension of the hindlimbs. Mice were given a single IP injection (0.1 mL/10 g bodyweight) of a 0.5% acetic acid solution. After the injection the animals were returned to their observation enclosure and their behavior was observed. Contractions were counted between 0 and 20 minutes after the injection. The animals were used once. Each tested article was dosed at 1, 3 and 10 mg/kg (n=5 animals/dose).

[3] = 10 mg/kg, 5 animals, acetic acid writhing

`N=C(N)N1CCc2ccccc2C1` [Debrisoquine sulfate, debrisoquine sulfate] was tested. Which Ki [1] did it give?
The Ki was 594 nM.

How did the “Mean (contractions/writhing counted)” value ([2]; 10 mg/kg single pretreatment dose 30 min before IP 0.5% acetic acid, contractions counted 0-20 min, CD-1 male mice) turn out when `N=C(N)N1CCc2ccccc2C1` [Debrisoquine] was run?
Its value is 49.6.

And the “No. of Responders” value [2, 3]?
Its value is 0.

And the “Responding Fraction” value [2, 3]?
Its value is 0.00.

And the “% Reduction in writhing” value ([2]; 10 mg/kg, CD-1 male mice, acetic acid writhing)?
Its value is 10.6%.
